Measured values taken from PubChem BioAssay (NCI).
Values joined by “and” are separate entries in the source; they are usually repeats but may differ in a detail not shown here. Identical values can stand only once.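 Cultured in 96-well plates, cells were exposed to test compound for 48 hours across five concentrations. GI50 marks 50% less growth. At the TGI there is no net growth.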

Columns and labels:
Assay in all cases: DTP human tumour cell line panel, 48 h
SN12C renal = tested on: SN12C renal
T-47D breast = tested on: T-47D breast
NCI-H460 lung = tested on: NCI-H460 lung
EKVX NSCLC = tested on: EKVX NSCLC
OVCAR-5 ovarian = tested on: OVCAR-5 ovarian
SK-MEL-5 melanoma = tested on: SK-MEL-5 melanoma
NCI-H23 lung = tested on: NCI-H23 lung
RXF 393 renal = tested on: RXF 393 renal
HT29 colon = tested on: HT29 colon
A498 renal = tested on: A498 renal

Compound | GI50 (SN12C renal) | TGI (SN12C renal) | GI50 (T-47D breast) | TGI (T-47D breast) | GI50 (NCI-H460 lung) | TGI (NCI-H460 lung) | GI50 (EKVX NSCLC) | TGI (EKVX NSCLC) | GI50 (OVCAR-5 ovarian) | TGI (OVCAR-5 ovarian) | GI50 (SK-MEL-5 melanoma) | TGI (SK-MEL-5 melanoma) | GI50 (NCI-H23 lung) | TGI (NCI-H23 lung) | GI50 (RXF 393 renal) | TGI (RXF 393 renal) | GI50 (HT29 colon) | TGI (HT29 colon) | GI50 (A498 renal) | TGI (A498 renal)
Cc1nn(C)c(COc2ccc(N3CCN(S(=O)(=O)N(C)C)CC3)cc2)c1-c1cccc2c(CCCOc3cccc4ccccc34)c(C(=O)O)n(CCN3CCOCC3)c12 | 3.25 µM | 12.4 µM | 2.4 µM | 9.38 µM | 3.17 µM | 11.1 µM | 3.59 µM | 15 µM | 3.96 µM | 23.5 µM | 2.44 µM | 5.96 µM | 3.54 µM | 14.7 µM | 2.72 µM | 6.98 µM | 2.63 µM | 6.92 µM | 2.3 µM | 6.59 µM
Cc1[nH]c2ccc(F)cc2c1-c1nc2c3cccnc3c3ncccc3c2[nH]1 | 0.403 µM | > 100 µM | 0.357 µM | > 100 µM | 0.41 µM | > 100 µM | 0.278 µM | > 100 µM | 0.397 µM | > 100 µM | 0.19 µM | 0.516 µM | 0.418 µM | > 100 µM | 0.354 µM | > 100 µM | 0.479 µM | > 100 µM | 0.944 µM | > 100 µM
NC(=O)Nc1cc(-c2cccc(F)c2)sc1C(=O)N[C@H]1CCCNC1 | 0.0889 µM and 0.218 µM | 3.28 µM and 3.27 µM | 1.07 µM and 2.71 µM | > 10 µM and 18.8 µM | 0.207 µM and 0.467 µM | 3.32 µM and 4.22 µM | 0.576 µM and 1 µM | > 5.79 µM and 8.28 µM | 0.173 µM and 0.361 µM | > 6.2 µM and 4.4 µM | 0.295 µM and 0.456 µM | 2.06 µM and 4.27 µM | 0.038 µM and 0.193 µM | 1.52 µM and 2.63 µM | 0.00554 µM and 0.0395 µM | 0.0255 µM and 0.244 µM | 0.25 µM and 0.282 µM | > 10 µM and 1.37 µM | 0.0173 µM and 0.0385 µM | 0.0984 µM and 0.194 µM
NCCN.O=C([O-])CN1CCOCC1.[OH-].[Pt+4] | > 100 µM | > 100 µM | > 100 µM | > 100 µM | 37.5 µM | > 100 µM | > 100 µM | > 100 µM | > 100 µM | > 100 µM | > 100 µM | > 100 µM | 60.9 µM | > 100 µM | > 100 µM | > 100 µM | > 100 µM | > 100 µM | > 100 µM | > 100 µM
CC(=O)[O][Sn]([CH2]c1ccccc1)([CH2]c1ccccc1)[CH2]c1ccccc1 | > 10 µM | > 10 µM | > 10 µM | > 10 µM | > 10 µM | > 10 µM | > 5.53 µM | > 6.88 µM | > 10 µM | > 10 µM | 4.15 µM | > 6.51 µM | > 5.98 µM | > 7.83 µM | 3.98 µM | > 4.64 µM | 4.72 µM | > 8.87 µM | > 4.95 µM | 9.94 µM
O=C1C(c2cnc3ccccc3n2)=C(O)c2ccccc21 | – | > 100 µM | – | > 100 µM | – | > 100 µM | – | > 100 µM | – | > 100 µM | – | > 100 µM | – | > 100 µM | – | 36.1 µM | – | > 100 µM | – | > 100 µM
COc1ccc(N(/C=C/C(=O)C(F)(F)F)CC(=O)c2ccc(F)cc2)cc1 | 14.7 µM | 33.8 µM | 32.1 µM | > 100 µM | 23.5 µM | 50 µM | 25.4 µM | > 100 µM | 34.1 µM | 93.3 µM | 14.8 µM | 32 µM | 30.1 µM | 84.9 µM | 28.8 µM | 77.4 µM | 46.2 µM | > 100 µM | 14.2 µM | 37.8 µM
Cc1ccc(C(=O)NC2CCC2)cc1-c1ccc(C(=O)NCC2CC2)cc1 | > 25 µM | > 25 µM | 12.9 µM | > 25 µM | > 25 µM | > 25 µM | > 25 µM | > 25 µM | > 25 µM | > 25 µM | > 21.5 µM | > 25 µM | > 25 µM | > 25 µM | > 25 µM | > 25 µM | > 25 µM | > 25 µM | 25 µM | > 25 µM
Cc1ccc(-c2nc3nc(-c4ccccc4)nc(N4CCNCC4)c3o2)cc1 | 0.849 µM | 2.31 µM | 0.832 µM | 2.6 µM | 0.226 µM | 0.503 µM | 1.74 µM | 3.24 µM | 1.31 µM | 2.74 µM | 1.65 µM | 3.04 µM | 1.8 µM | 3.53 µM | 1.43 µM | 2.97 µM | 0.242 µM | 0.567 µM | 1.47 µM | 2.97 µM
Cc1[nH]c(=O)nc(Nc2ccc(Cl)cc2)c1C(=O)N1CCN(CCO)CC1 | > 100 µM | > 100 µM | 84.2 µM | > 100 µM | > 100 µM | > 100 µM | > 100 µM | > 100 µM | > 100 µM | > 100 µM | > 100 µM | > 100 µM | 76 µM | > 100 µM | 24.4 µM | 76.8 µM | > 100 µM | > 100 µM | 42.2 µM | > 100 µM
C#CCNCCN1C(=O)c2ccc3c4c(ccc(c24)C1=O)C(=O)N(CCNCC#C)C3=O | 2.62 µM | 9.32 µM | 4.16 µM | 14.8 µM | 1.86 µM | 9.68 µM | 5.93 µM | 13.6 µM | 8.63 µM | 18.3 µM | 1.65 µM | 6.56 µM | 3.56 µM | 15.6 µM | 1.79 µM | 9.69 µM | 1.65 µM | 6.2 µM | 7.14 µM | 14.1 µM
O1[As]2O[As]3O[As]1O[As](O2)O3 | 0.881 µM | 4.79 µM | 0.474 µM | 12.6 µM | 2.03 µM | – | 1.54 µM | 7.12 µM | 1.41 µM | 5.32 µM | 0.473 µM | 1.75 µM | 0.733 µM | 4.98 µM | 0.502 µM | 1.85 µM | 0.876 µM | 4.67 µM | 0.0875 µM | 0.352 µM
